Reference: US7026516B2 (priority 2000, dated 2006)
Where two headings read alike, the source gives them in different places.

Key:
serotonin transporter = target: T1, serotonin transporter (Macaca mulatta, UniProt Q9MYX0); assay: biochemical; assay type: binding
T1 construct: Each caudate-putamen was homogenized and used separately for dopamine and serotonin transporter assays; from tissue; host or cells: caudate-putamen membranes of adult cynomolgus or rhesus monkey brain
Method: The affinities and transporter selectivities of the drugs were assessed in brain tissue of adult cynomolgus or rhesus monkey (Macaca fasicularis or Macaca Mulatta). Caudate-putamen was the source of the dopamine and serotonin transporters. The dopamine transporter affinity was measured with [3H]WIN 35,428 ([3H]CFT), the serotonin transporter was measured with [3H]citalopram and the norepinephrine transporter was measured with [3H]nisoxetine. Affinities of selected compounds were also measured at the human dopamine transporter in HEK-293 cells expressing the human dopamine transporter (hDAT).
Brain tissue was harvested from adult male and female cynomolgus (Macaca fasicularis) or rhesus (Macaca Mulatta) monkeys euthanized in the course of other research or after spontaneous death. Tissue was stored in the brain bank at the New England Regional Primate Research Center at −85° C. The caudate-putamen (approximately 1.5 g) was dissected from coronal sections of brain. Each caudate-putamen was homogenized and used separately for dopamine and serotonin transporter assays. Prior to homogenization, the thalamus from two brains was pooled and membranes were prepared as described previously for norepinephrine transporter assays (Madras et al., Synapse, 22:231–232, 1998; Madras et al., Synapse, 24:340–348, 1996). Briefly, the tissue was homogenized in 10 volumes (w/v) of ice-cold Tris.HCl buffer (50 mM, pH 7.4 at 0–4° C.) and centrifuged at 38,700×g for 20 min in the cold. The resulting pellet was resuspended in 40 volumes of buffer, and the entire wash procedure was repeated twice. The membrane suspension (25 mg original wet weight of tissue/ml) was diluted to 12 mg/ml in buffer just prior to assay and dispersed with a Brinkmanm polytron (setting #5) for 15 sec. […] All experiments were conducted in triplicate and each experiment was repeated in 2–4 individual tissue preparations.
The serotonin transporter was assayed in caudate-putamen membranes using similar assay conditions as for the dopamine transporter. […] The affinity of drugs for the serotonin transporter labeled by [^3H]citalopram (spec. act.: approximately 85 Ci/mmol, NEN) was determined in experiments by incubating tissue with a fixed concentration of [^3H]citalopram and a range of concentrations of drug. Assays were conducted in Tris-HCl buffer containing NaCl (100 mM) and the following constituents: [^3 H]citalopram (1 nM, 0.2 ml), test drug (1 pM–100 TM, 0.2 ml) and tissue (0.2 ml, 3 mg/ml original wet tissue weight). The 2 h incubation (0–4° C.) was initiated by addition of membranes and terminated by rapid filtration over Whatman GF/B glass fiber filters pre-soaked 1 hour in 0.1% polyethyleneimine. The filters were washed three times with 5 ml Tris.HCl buffer (50 mM), and the remaining steps were carried out as described above. Total binding was defined as [^3H]citalopram bound in the presence of ineffective concentrations of unlabeled citalopram (1 pM) or the test compounds. Non-specific binding was defined as [^3H]citalopram bound in the presence of an excess (10 TM) of fluoxetine. Specific binding was the difference between the two values. Cpm were converted to dpm following determination of counting efficiency (>45%) of each vial by external standardization.
Data were analyzed by the EBDA and LIGAND computer software programs (ElsevierBiosoft, U.K.) Final estimates of IC50 and nH values were computed by the EBDA program. Baseline values for the individual drugs were established by computer analysis, using the baseline drugs as a guide. The LIGAND program provided final parameter estimates for the affinity of the radioligand (Kd) by iterative non-linear curve-fitting and evaluation of one- or two-component binding models. LIGAND was used to measure the affinity of the radioligands at the dopamine and serotonin transporter. Graphs (not shown) were produced by the computer software program PRISM, using a one- or two-site competition analysis curve.

dopamine transporter = target: T2, dopamine transporter (Macaca fascicularis, UniProt Q9GJT6); assay: Inhibition of [3H]WIN 35,428 binding to the dopamine transporter in monkey caudate-putamen
T2 construct: Each caudate-putamen was homogenized and used separately for dopamine and serotonin transporter assays; from tissue; host or cells: caudate-putamen membranes of adult cynomolgus or rhesus monkey brain

[1] = Table 1, [3H]citalopram, monkey caudate-putamen, mean of 3 or more experiments, read-out: SERT IC50
[2] = Table 2, affinity at the serotonin transporter, read-out: SERT IC50
[3] = Table 2, affinity at the dopamine transporter, read-out: DAT IC50
[4] = Table 2, ratio of SERT and DAT IC50 values
[5] = Table 1, [3H]WIN 35,428, monkey caudate-putamen, mean of 3 or more experiments, read-out: DAT IC50
[6] = read-out: IC50, binding potency at the DAT

T2 sequence (Q9GJT6 whole entry): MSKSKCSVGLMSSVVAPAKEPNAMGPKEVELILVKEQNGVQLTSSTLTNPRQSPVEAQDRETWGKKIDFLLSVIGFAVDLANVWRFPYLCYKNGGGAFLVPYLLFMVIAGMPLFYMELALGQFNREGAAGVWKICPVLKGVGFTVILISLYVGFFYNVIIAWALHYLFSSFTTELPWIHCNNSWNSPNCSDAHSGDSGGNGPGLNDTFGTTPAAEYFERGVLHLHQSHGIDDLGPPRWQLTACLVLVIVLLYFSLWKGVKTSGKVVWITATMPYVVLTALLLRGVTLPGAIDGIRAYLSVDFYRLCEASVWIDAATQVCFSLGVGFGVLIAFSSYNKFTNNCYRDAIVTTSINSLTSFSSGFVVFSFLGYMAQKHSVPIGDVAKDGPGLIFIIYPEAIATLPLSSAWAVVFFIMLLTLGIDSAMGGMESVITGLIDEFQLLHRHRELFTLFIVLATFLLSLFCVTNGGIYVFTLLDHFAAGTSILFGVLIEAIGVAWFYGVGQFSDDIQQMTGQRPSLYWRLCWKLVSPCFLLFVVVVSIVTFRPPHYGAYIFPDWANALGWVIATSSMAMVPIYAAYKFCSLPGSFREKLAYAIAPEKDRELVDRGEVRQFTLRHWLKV
T1 sequence (Q9MYX0 whole entry): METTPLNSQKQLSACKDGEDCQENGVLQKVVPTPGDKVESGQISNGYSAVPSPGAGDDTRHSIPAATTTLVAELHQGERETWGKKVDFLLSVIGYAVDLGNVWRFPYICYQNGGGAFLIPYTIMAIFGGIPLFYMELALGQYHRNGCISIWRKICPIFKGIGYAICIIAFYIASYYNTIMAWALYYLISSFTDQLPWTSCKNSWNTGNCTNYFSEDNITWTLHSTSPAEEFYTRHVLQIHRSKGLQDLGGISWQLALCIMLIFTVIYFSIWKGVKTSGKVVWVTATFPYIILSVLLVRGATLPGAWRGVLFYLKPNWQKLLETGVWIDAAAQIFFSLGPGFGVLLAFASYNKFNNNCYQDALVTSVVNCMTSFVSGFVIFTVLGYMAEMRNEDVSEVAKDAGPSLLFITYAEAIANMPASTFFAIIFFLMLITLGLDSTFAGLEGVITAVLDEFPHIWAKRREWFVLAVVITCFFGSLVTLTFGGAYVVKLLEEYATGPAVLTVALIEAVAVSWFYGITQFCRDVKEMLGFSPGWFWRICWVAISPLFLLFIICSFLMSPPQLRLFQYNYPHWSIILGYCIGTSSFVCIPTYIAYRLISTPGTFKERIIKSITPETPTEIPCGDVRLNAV

COC(=O)C(c1ccccc1)C1CCCCN1 (centres unmarked) [Methylphenidate, reference compound]
IC50 (serotonin transporter): > 100 µM
DAT/SERT RATIO (dopamine transporter): 5,800
IC50 (dopamine transporter): 0.0172 ± 0.00204 µM

COC(=O)[C@@H](c1ccc(Cl)c(Cl)c1)[C@H]1CCCCO1 [Compound O-1793, 2S-(3,4-Dichlorophenyl)tetrahydropyran-2′R-yl acetic acid methyl ester]
IC50 (serotonin transporter; [1]): > 10 µM
IC50 (serotonin transporter; [2]): > 10 µM

COC(=O)C(c1ccc(Cl)c(Cl)c1)C1CCCCO1 (centres unmarked) [Compound 0-1730, 2-(3,4-Dichlorophenyl)tetrahydropyran-2-yl acetic acid methyl esters]
IC50 (serotonin transporter; [2]): 2.18 µM

O=C(O)[C@H](c1ccc(Cl)c(Cl)c1)[C@H]1CCCCO1
melting point: 139.1 to 140.1 °C

COC(=O)[C@H](c1ccc(Cl)c(Cl)c1)[C@H]1CCCCO1 [Compound O-1783]
IC50 (serotonin transporter; [1]): > 10 µM
IC50 (serotonin transporter; [2]): > 10 µM
IC50 (dopamine transporter): 0.017 ± 0.0013 µM

O=C(O)[C@H](c1ccc(Cl)c(Cl)c1)C1CCCCO1 (some centres unmarked)
melting point: 124.1 to 125.1 °C

CO[C@@H]1C[C@H](c2ccc(Cl)c(Cl)c2)c2ccccc21 (relative stereo) [Compound 0-1617, Cis-1-Methoxy-3-(3,4-dichlorophenyl)indans]
IC50 (serotonin transporter; [2]): > 4.1 µM
IC50 (dopamine transporter; [3]): 0.13 ± 0.0497 µM
DAT/SERT RATIO (dopamine transporter; [4]): >32

COC(=O)C(c1ccc2ccccc2c1)C1CCCCO1 (centres unmarked) [Naphthyl mixture, (2-Naphthyl)-(tetrahydropyran-2-yl) acetic acid methyl esters]
IC50 (serotonin transporter; [1]): 5 µM
IC50 (serotonin transporter; [2]): 5 µM
IC50 (serotonin transporter; binding to the SERT, read-out: SERT IC50): 5 µM
IC50 (dopamine transporter; [5]): 0.3 µM
IC50 (dopamine transporter; [3]): 0.3 µM
DAT/SERT RATIO (dopamine transporter; [4]): 16.7
IC50 (dopamine transporter; binding to the DAT, read-out: DAT IC50): 0.3 µM
IC50 (dopamine transporter; [6]): 0.3 µM

COC(=O)C(c1ccc(Cl)c(Cl)c1)C1CCCCO1 (centres unmarked) [Compound 0-1731, 2-(3,4-Dichlorophenyl)tetrahydropyran-2-yl acetic acid methyl esters]
IC50 (serotonin transporter; [2]): 7.79 µM
IC50 (dopamine transporter; [3]): 0.286 ± 0.0105 µM

O=C(O)C(c1ccc(Cl)c(Cl)c1)C1CCCCO1 (centres unmarked)
melting point: 138.9 to 139.9 °C

N#CC(c1ccc(Cl)c(Cl)c1)C1CCCCC1 (stereo not drawn) [Compound 8, α-cyclohexyl-3,4-dichlorobenzylcyanide]
IC50 (serotonin transporter; [1]): 8 µM
IC50 (serotonin transporter; [2]): 8 µM
IC50 (serotonin transporter; read-out: IC50, binding potency at the SERT): 8 to 12 µM
IC50 (dopamine transporter; [3]): 0.127 µM
DAT/SERT RATIO (dopamine transporter; [4]): 63
IC50 (dopamine transporter; [6]): 0.127 to 0.146 µM

N#CC(c1ccc(Cl)c(Cl)c1)C1CCCC1 (stereo not drawn) [Compound 10, α-cyclopentyl-3,4-dichlorobenzylcyanide]
IC50 (dopamine transporter; [5]): 0.128 µM
IC50 (dopamine transporter; [3]): 0.128 µM
DAT/SERT RATIO (dopamine transporter; [4]): 78

CO[C@@H]1C[C@@H](c2ccc3ccccc3c2)c2ccccc21 (relative stereo) [Compound 0-1925, Trans-1-Methoxy-3-(2-naphthyl)indans]
IC50 (serotonin transporter; [2]): 0.136 ± 0.0045 µM
IC50 (dopamine transporter; [3]): 0.213 ± 0.027 µM
DAT/SERT RATIO (dopamine transporter; [4]): 0.6

COC(=O)[C@H](c1ccc(Cl)c(Cl)c1)[C@@H]1CCCCO1 [Compound O-1792, 2R-(3,4-Dichlorophenyl)tetrahydropyran-2′S-yl acetic acid methyl ester]
IC50 (serotonin transporter; [1]): > 10 µM
IC50 (serotonin transporter; [2]): > 10 µM

CO[C@@H]1C[C@@H](c2ccc(Cl)c(Cl)c2)c2ccccc21 (relative stereo) [Compound 0-1630, Trans-1-Methoxy-3-(3,4-dichlorophenyl)indans]
IC50 (serotonin transporter; [2]): 0.334 ± 0.1 µM
IC50 (dopamine transporter; [3]): 0.06 ± 0.023 µM
DAT/SERT RATIO (dopamine transporter; [4]): 6

COC(=O)[C@@H](c1ccc(Cl)c(Cl)c1)[C@@H]1CCCCO1 [Compound O-1794, 2S-(3,4-Dichlorophenyl)tetrahydropyran-2′S-yl acetic acid methyl ester]
IC50 (serotonin transporter; [1]): 1.66 µM
IC50 (dopamine transporter): 0.0339 ± 0.0086 µM

CO[C@@H]1C[C@H](c2ccc3ccccc3c2)c2ccccc21 (relative stereo) [Compound 0-1833, Cis-3-(2-Naphthyl)-0-methylindanol]
IC50 (serotonin transporter; [2]): 0.422 ± 0.038 µM
IC50 (dopamine transporter; [3]): 0.189 ± 0.012 µM
DAT/SERT RATIO (dopamine transporter; [4]): 2
